Each structure is given as a SMILES string.

Series [1] deals with L929 cells. In words: TGF-induced collagen synthesis in L929 cells, 96-well plate format (SIRCOL). The settings on record: 500 μM. Format: cell-based. As for the experimental part: Five thousand L929 cells were plated in complete DMEN and incubated until confluency for 3 days. Medium was removed and complete DMEM containing Prolin (20 μg/ml) and ascorbic acid (10 μM) was added. […] Cells were further incubated for 72 hrs. Supernatant was removed, 0.5% gluteraldehyde was added for 30 min at RT, removed, washed 3× with dd water, 0.5 M acetic acid was added for 30 min at RT, removed, washed with water, air dried and 100 μl SIRCOL dye was added for 5 h at RT. Dye was removed, plate was washed extensively under running water, air dried and 200 μl of 0.5 M NaOH was added, plates were shaken at RT for 1 h, and OD was determined at 600 nm.

In series [2] the test system is L929 cells. Put plainly: TGF-induced soluble collagen synthesis in L929 cells (ELISA). Format: cell-based. Conditions: 500 μM. As for the experimental part:
Five thousand L929 cells were plated in complete DMEN and incubated until confluency for 3 days. Medium was removed and complete DMEM containing Prolin (20 μg/ml) and ascorbic acid (10 μM) was added. […] Cells were further incubated for 72 hrs. 200 μl supernatant of 96-well SIRCOL plate was placed onto ELISA plate and incubated 0/N. Next day, supernatant was removed and 100 ul of 1% BSA in PBST was added and incubated for 2 h at RT, BSA was removed, plate was washed 3× with 200 μl of PBST, and anti-collagen type I a.b was added at 1:2000 dilution (prepared in %1 BSA in PBST), incubated at RT for 1 h, primary a.b was removed, plate was washed 3× with 200 μl PBST, and secondary anti-goat HRP was added at 1:2000 dilution, incubate at RT for 1 h, removed, plate was washed 3× with 200 μl PBST and 100 μl of TMB solution was added for color development for 15 min, then 100 μl of 2 N H2SO4 was added to stop the reaction and O.D of developed yellow color was determined at 450 nm.
For orientation: An ELISA detects its analyte on a solid surface through an enzyme-linked reagent.

The conditions of series [3]: human, in vivo.
Experimental: All Part 1 cohorts will be dosed every 12 hours with food for 5 days.
During the treatment period (Day 1 through Day 5), subjects will be administered their assigned study medication BID, every 12 h±0.25 h (with approximately 240 mL of non-carbonated water), 30 minutes after the start of consumption of their standardised breakfast or dinner (12 h apart). A standardised lunch will be served >4 h post breakfast and >4 h prior to dinner. An evening snack will be served >3 h following evening study medication administration. No additional fluids will be allowed during the 1 h pre- and post-doses. On Day 6, subjects will replicate mealtimes as scheduled on Day 1-5. To ensure study drug dosing every 12 hours, here is an example of meal and dosing schedule in Part 1: • Breakfast: meal to be served 30 mins prior to AM dosing. Breakfast must be completed within 30 mins of start time. • Lunch: meal to be served at least 4 h post-AM study drug dose. • Dinner: meal to be served at least 11.5 h post-AM dose and served 30 minutes prior to PM study drug dose. • Evening snack: Snack to be served at least 15 h post-AM dose (at least 3 h post-PM dose).
In Part 1, blood samples (4 mL each) for PK will be collected for Cohorts 1, 2, 3, 4, and 6 at specified times (hours) at each as follows: • Day 1 and Day 5: 0 (pre-dose), 0.5, 1, 1.5, 2, 2.5, 3, 3.5, 4, 6, 8, 12 (pre-dose), 13, 14, 15, 16, 18 h • Day 2, Day 3 and Day 4: 0 (pre-morning-dose) and 12 h (pre-evening-dose) • Day 6: 12, 18, 24 and 36 h post-last dose • Day 7: 48 h (post-last dose)
Pharmacokinetics for Day 1 to 3 in Part 2 (fed state) will be compared to PK for Day 1 to Day 3 in Part 2 (fasted state). Plasma PK parameters (non-compartmental or compartmental analysis as appropriate) will include, but are not limited to: • Following single dose: Tmax, tlag, Cmax, AUC0-4, AUC0-last, AUC0-inf, lambda z, % AUCext, CL/F, Vz/F, Cmax/D, AUC0-last/D, AUC0-inf/D and MRT (D is dose) • After repeated doses: Ctrough, Ctrough/D • Following repeated doses on last day: Tmax, Cmax, Cavg, tlag, t1/2, AUC0-4, AUC0-last, AUC0-inf, lambda z, % AUCext, CLss/F, Vzss/F, MRT, PTF, Rac(AUC), Rac(Cmax), Cmax/D, AUClast/D, AUC0-inf/D and Rac (accumulation ratio) Part 3 (Patients with Secondary Lymphoedema Post-Axillary/Post-Sentinel Node Dissection)
Series [4] relates to Primary Mouse Lung Fibroblasts. Put plainly: Survival / TGF-β-induced proliferation of Primary Mouse Lung Fibroblasts (MTT). Format: cell-based. The settings on record: 500 μM, 72 hrs. As for the experimental part:
Primary Mouse lung fibroblast were prepared as follows. One lung was removed from 2 months old male BalbC Mouse, perfused with sterile PBS, minced and incubated in 2 ml of serum free Dulbecco's Modified Eagle's Medium (DMEM) containing 100 μg/ml of collagenase I for one hour at 37° C. Each sample was centrifuged at 1500 r.p.m (revolution per minute) for 5 minutes, washed three times with PBS and the final cellular pellet was resuspended in DMEM supplemented with 10% serum and Pen/Strep, and incubated in 150 mm plates at 37° C. with 80% humidity and […]. The growth medium was removed and fresh medium was added every day for 10 days.
At the end of 10-day incubation period above, lung fibroblasts were confluent. […] One hundred μL of the growth medium was removed and 20 μL of MTT stock solution (prepared in PBS at 5.5 mg/ml concentration) was added and cells were incubated for 4 hrs, then 100 μl of DMSO was added, and absorbance of developed color was monitored at 540-690 nm.

Series [5] deals with L929 cells. Put plainly: TGF-induced soluble fibronectin synthesis in L929 cells (ELISA). Format: cell-based. The settings on record: 500 μM, in the absence and presence of TGF-β-induction. The text has this: Fibronectin is another important component of fibrotic lungs as it is induced by TGF-β and functions both as a structural component of extra cellular matrix as well as well as a ligand for integrin receptors. Just like soluble collagen, binding of fibronectin to integrin receptors induces the proliferation of fibroblast and epithelial cells of the lungs.

With `[2H]C([2H])([2H])c1ccc(=O)n(-c2ccccc2)c1` [LYT-100, 5-(methyl-d3)-1-phenylpyridin-2-(1H)-one], the “total collagen level in the absence of TGF-β induction” value in the series with L929 cells [1] is “significantly inhibited or reduced”. The “TGF-β-induced total collagen levels” value in the series on L929 cells [1] (TGF-β 5 ng/ml, 72 hrs) is listed as “significantly inhibited or reduced”. Also, the “soluble collagen levels in the absence of TGF-β-induction” value in the series with L929 cells [2] is “significantly reduced”. For the same molecule, the “TGF-β-induced soluble collagen levels” value in the series with L929 cells [2] (TGF-β 5 ng/ml, 72 hrs) is given as “significantly inhibits”. In addition, the “dose dependence of AUC96-108” value in series [3] was “linear dose proportionality”. Besides, the “survival of PMLF alone” value in series [4] (without TGF-β) is “did not affect the survival”. Besides, in series [4] (TGF-β 5 ng/ml, not statistically significant (p=0.19)), the “diminution of TGF-β-induced proliferation of PMLF” value is listed as 10%. Also, the soluble fibronectin levels entry in the series with L929 cells [5] was “significantly reduced”.

The values above are taken from patent US20230040415A1 (PureTech LYT 100, Inc., priority 2020, published 2023).
